In patent US11192900B2, “Substituted 1,6-dihydropyridinones and 1,2-dihydroisoquinolinones as bet inhibitors” (NUVATION BIO INC., priority 2018, dated 2021):
Where two headings read alike, the source gives them in different places.

Tests used:
BRD4-1 = BRD4-1 (Homo sapiens (Human), UniProt O60885); test: Bromodomain and Extraterminal Domain (BET) Binding Assay; conditions: Table 3; read-out: BRD4-1 IC50
Procedure: (§1) The bromodomain binding assays were performed by Reaction Biology Corp., Malvern, Pa., USA (www.reactionbiology.com). The BET binding assays were conducted in 384 well microplates in assay buffer (50 mM HEPES-HCl, pH 7.5, 100 mM NaCl, 1 mg/ml BSA, 0.05% CHAPS, and 0.5% DMSO) with compounds added as DMSO stocks at a single concentration or with 10-point dose response titrations. BET protein or assay buffer were delivered to the appropriate wells of the microplate. Test compound was then delivered by acoustic technology via a Labcyte Echo550 liquid handler. The microplate was centrifuged for 5 min and pre-incubated for 30 min at RT with gentle shaking. The ligand (histone H4 peptide (1-21) K5/8/12/16Ac-biotin) was delivered and the microplate was again centrifuged for 5 min and allowed to incubate for 30 min at RT with gentle shaking. Donor beads were then added in the absence of light and the microplate was centrifuged and gently shaken. After 5 min, acceptor beads were added in the absence of light and the microplate was centrifuged and gently shakenin the dark for 60 min. The microplate was read using a Perkin Elmer EnSpire Alpha plate reader (λEx/λEm=680/520-620 nm). Percent inhibition was calculated relative to positive and negative controls on a per plate basis. For titration experiments, IC50 values were determined by fitting the percent inhibition versus compound concentration.

BRD4-2 = BRD4-2 (Homo sapiens (Human), UniProt O60885); test: as above; conditions: Table 3; read-out: BRD4-2 IC50
Procedure: as §1

[1] = test system: MV-4-11 human acute myeloid leukemia cell line; test: Second cell viability assay in MV-4-11 (Cell Titer-Glo); type: cell-based; conditions: MV4-11, Cell Titer-Glo, 72 hrs, read-out: Cell Viability IC50 in MV4-11 cells
Procedure: The effects of test compounds were studied in a second cell viability assay in the MV-4-11 human acute myeloid leukemia cell line. The cells were harvested during the logarithmic growth period and counted. Cells were seeded at a count of 15000 cells per well/100 μl. After seeding, cells were incubated at 37° C., 5% CO2 for 1 hr. Cells were treated with test compounds at 8 concentrations within a desired concentration range (e.g. 5 nM-[…]) for generation of dose response curves by preparing serial dilutions of the test compound in DMSO which were further diluted with culture medium and then added to each well. The plate was further incubated for another 72 hrs in a humidified incubator at 37° C. and 5% CO2. The assay was terminated by addition of Cell Titer-Glo reagent (Promega, Madison, Wis.) at ¼ the volume of total medium per well. Contents were mixed, the plate was incubated for 10 min at room temperature and luminescence was measured. Cell viability data were plotted using GraphPad Prism (GraphPad Software, Inc., San Diego, Calif.). In addition, a nonlinear regression model with a sigmoidal dose response and variable slope within GraphPad Prism was used to calculate the IC50 value of individual test compounds.

[2] = test system: IEC-6 rat intestinal epithelial cell line; test: IEC-6 cell viability, Protocol B (toxicity to non-cancerous cells); type: cell-based; conditions: IEC-6, 4000 cells per well, 48 hrs
Procedure: The effects of test compounds were also studied in the IEC-6 rat intestinal epithelial cell line to assess potential toxicity to non-cancerous cells. The cells were harvested during the logarithmic growth period and counted. In Protocol A, cells were seeded at a count of 3000 cells per well/100 μl in a 96-well plate. After seeding, cells were incubated at 37° C., 5% CO2 for 24 hr. Cells were treated with test compounds at 8 concentrations within a desired concentration range (e.g. 5 nM-10 μM) for generation of dose response curves by preparing serial dilutions of the test compound in DMSO which were further diluted with culture medium and then added to each well. The plate was further incubated for another 96 hrs in humidified incubator at 37° C. and 5% CO2. The assay was terminated by addition of resazurin (# R7017, Sigma). The plate was incubated for 4 hr at 37° C., 5% CO2 and fluorescence was measured using excitation and emission wavelengths of 535 and 590 nm, respectively. Cell viability data were plotted using GraphPad Prism (GraphPad Software, Inc., San Diego, Calif.). In addition, a nonlinear regression model with a sigmoidal dose response and variable slope within GraphPad Prism was used to calculate the IC50 value of individual test compounds. Protocol B was the same as Protocol A except that cells were seeded at a count of 4000 cells per well/100 μl in a 96-well plate, and the incubation with test compound was for 48 hrs instead of 96 hrs.

c-Myc = test: Measurement of c-Myc suppression after washoff (Western blot); type: cell-based, human; conditions: MV4-11, 2 μM for 2 hr, washed, further 6 hr
Procedure: MV4-11 cells were incubated with 2 μM of JQ1, mivebresib or a test compound for 2 hr. The cells were then washed twice with fresh culture medium and further cultured for another 6 hr. Cells were extracted with SDS sample buffers and then subjected to Western blot analysis to measure c-Myc. Compounds 2, 3, 12, 17, 409, 411 and 412 were tested in these assays.

[3] = test system: 22Rv1 human prostate carcinoma cell line; test: Cell viability assay (resazurin); type: cell-based; conditions: 22Rv1, resazurin, 72 hrs
Procedure: The effects of test compounds were also studied in the 22Rv1 human prostate carcinoma and MDA-MB-231 human breast adenocarcinoma cell lines. The cells were harvested during the logarithmic growth period and counted. Cells were seeded at a count of 3000 cells (22Rv1) or 5000 cells (MDA-MB-231) per well/100 μl in a 96-well plate. After seeding, cells were incubated at 37° C., 5% CO2 for 24 hr. Cells were treated with test compounds at 8 concentrations within a desired concentration range (e.g. 5 nM-10 μM) for generation of dose response curves by preparing serial dilutions of the test compound in DMSO which were further diluted with culture medium and then added to each well. The plate was further incubated for another 72 hrs (22Rv1) or 96 hrs (MDA-MB-231) in humidified incubator at 37° C. and 5% CO2. The assay was terminated by addition of resazurin (# R7017, Sigma). The plate was incubated for 4 hr at 37° C., 5% CO2 and fluorescence was measured using excitation and emission wavelengths of 535 and 590 nm, respectively. Cell viability data were plotted using GraphPad Prism (GraphPad Software, Inc., San Diego, Calif.). In addition, a nonlinear regression model with a sigmoidal dose response and variable slope within GraphPad Prism was used to calculate the IC50 value of individual test compounds.

22Rv1 cells = test: 22Rv1 cell proliferation assay with wash-off or mock wash-off; type: cell-based, human
Procedure: A 22Rv1 cell proliferation assay was used to assess durability of test compound effects after transient exposure of test compound to cells. 22Rv1 cells were seeded at 3000 cells per well/100 μl in a 96-well plate and incubated with test compounds at specified dilutions for 2 hr at 37° C. and 5% CO2. Following the incubation, test compound was washed off and replacement culture medium without test compound was added. Wash-off was performed by three PBS washes. The cells were incubated for an additional 96 hr at 37° C. and 5% CO2. In parallel, a mock wash-off was performed with cells that were treated identically except that the replacement culture medium contained test compound. The plate was incubated for 4 hr at 37° C., 5% CO2 and fluorescence was measured using excitation and emission wavelengths of 535 and 590 nm, respectively. Cell viability data were plotted using GraphPad Prism (GraphPad Software, Inc., San Diego, Calif.). In addition, a nonlinear regression model with a sigmoidal dose response and variable slope within GraphPad Prism was used to calculate the IC50 value of individual test compounds.

| SMILES | IC50 (BRD4-1) [nM] | IC50 (BRD4-2) [nM] | IC50 ([1]; Homo sapiens) [nM] | c-Myc suppression activity after washoff (c-Myc) | IC50 ([2]; Rattus norvegicus) [nM] | further results |
| --- | --- | --- | --- | --- | --- | --- |
| CCS(=O)(=O)Nc1ccc(Oc2ccc(F)cc2F)c(-n2ccc(=O)c3ccccc32)c1 [Compound 709, N-(4-(2,4-difluorophenoxy)-3-(4-oxoquinolin-1(4H)-yl)phenyl)ethanesulfonamide] | 1210 | 93 |  |  |  | IC50 [1]: 979 nM; IC50 [2]: 2900 nM |
| C=CC(=O)Nc1ccc(Nc2c(C)cccc2C)c(-c2cn(C)c(=O)c3cc(C(=O)NCC)sc23)c1 [Compound 585, 7-(5-acrylamido-2-(2,6-dimethylphenylamino)phenyl)-N-ethyl-5-methyl-4-oxo-4,5-dihydrothieno[3,2-c]pyridine-2-carboxamide] | 5070 | 43 | 221 | less durable activity |  |  |
| C=CC(=O)Nc1ccc(Oc2ccc(F)cc2F)c(-c2cn(C)c(=O)cc2OC)c1 [Compound 407, N-(4-(2,4-difluorophenoxy)-3-(4-methoxy-1-methyl-6-oxo-1,6-dihydropyridin-3-yl)phenyl)acrylamide] | 183 | 11 | 51 | less durable activity | 693 |  |
| C=CC(=O)Nc1ccc(Oc2c(C)cc(F)cc2C)c(-c2cn(C)c(=O)c3cc(C(=O)NCC)sc23)c1 [Compound 588, 7-(5-acrylamido-2-(4-fluoro-2,6-dimethylphenoxy)phenyl)-N-ethyl-5-methyl-4-oxo-4,5-dihydrothieno[3,2-c]pyridine-2-carboxamide] | 2850 | 6 | 82 | less durable activity |  |  |
| CCS(=O)(=O)Nc1ccc(Oc2c(C)cc(F)cc2C)c(-n2cc(C)c(=O)c3ccccc32)c1 [Compound 570, N-(4-(4-fluoro-2,6-dimethylphenoxy)-3-(3-methyl-4-oxoquinolin-1(4H)-yl)phenyl)ethanesulfonamide] | 1370 | 11 | 526 |  | 2860 | IC50 [3]: 1.27 µM |
| C=CS(=O)(=O)Nc1ccc(Oc2ccc(F)cc2F)c(-c2cn(C)c(=O)cc2OC)c1 [Compound 406, N-(4-(2,4-difluorophenoxy)-3-(4-methoxy-1-methyl-6-oxo-1,6-dihydropyridin-3-yl)phenyl)ethenesulfonamide] | 22 | 3 | 114 |  |  | IC50 (22Rv1 cells; Homo sapiens, 22Rv1, 2 hr exposure, three PBS washes, additional 96 hr without compound, read-out: Wash-off IC50): 415 nM; IC50 (22Rv1 cells; Homo sapiens, 22Rv1, 2 hr, replacement medium with test compound, additional 96 hr, read-out: Mock wash-off IC50): 255 nM |
| C=CC(=O)Nc1ccc(Oc2c(C)cccc2C)c(-c2cc(NC)c(=O)n(C)c2)c1 [Compound 411, N-(4-(2,6-dimethylphenoxy)-3-(1-methyl-5-(methylamino)-6-oxo-1,6-dihydropyridin-3-yl)phenyl)acrylamide] | 347 | 10 | 74 | less durable or no suppression activity |  |  |
| C=CC(=O)Nc1ccc(Oc2c(C)cccc2C)c(-c2cn(C)c(=O)cc2OC)c1 [Compound 584, N-(4-(2,6-dimethylphenoxy)-3-(4-methoxy-1-methyl-6-oxo-1,6-dihydropyridin-3-yl)phenyl)acrylamide] | 226 | 1 | 33 | less durable activity |  |  |
| CCS(=O)(=O)Nc1ccc(Oc2ccc(F)cc2F)c(-n2cc(Cl)c(=O)c3ccccc32)c1 [Compound 661, N-(3-(3-chloro-4-oxoquinolin-1(4H)-yl)-4-(2,4-difluorophenoxy)phenyl)ethanesulfonamide] | 20 | 5 | 71 |  | 273 |  |
| C=CC(=O)Nc1ccc(Oc2ccc(OC)cc2)c(-c2cn(C)c(=O)c3ccccc23)c1 [Compound 409, N-(4-(4-methoxyphenoxy)-3-(2-methyl-1-oxo-1,2-dihydroisoquinolin-4-yl)phenyl)acrylamide] | 479 | 75 | 253 | rebound in c-Myc expression |  |  |
| Cc1sc2c(c1C)C(c1ccc(Cl)cc1)=N[C@@H](CC(=O)OC(C)(C)C)c1nnc(C)n1-2 [JQ1, reference compound] |  |  |  |  |  | IC50 (22Rv1 cells; 22Rv1, 2 hr exposure, three PBS washes, additional 96 hr without compound, read-out: Wash-off IC50): > 10000 nM; IC50 (22Rv1 cells; 22Rv1, 2 hr, replacement medium with test compound, additional 96 hr, read-out: Mock wash-off IC50): 71 nM |
| CC(=O)Nc1ccc(Oc2c(C)cc(F)cc2C)c(-n2cc(C)c(=O)c3ccccc32)c1 [Compound 710, N-(4-(4-fluoro-2,6-dimethylphenoxy)-3-(3-methyl-4-oxoquinolin-1(4H)-yl)phenyl)acetamide] | 8150 | 292 | 2460 |  | 7550 | IC50 [3]: 6.66 µM |
